# Assay results reported in patent EP0326331B1, “Substituted quinolines and cinnolines” (Dow AgroSciences LLC, priority 1988, dated 1989).
# Tests used:
# Format in all cases: in vivo
# [1] = tested on: melon aphids (Aphis gossypii Glover); assay: Mite/insect screen, MA; settings: percent mortality, SAW, SM & MA RATE 200 PPM; for mortality at 200 ppm: Aphis gossypii, read-out: MA RESULTS %
# Procedure, shortened: (§1)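 Formulation: acetone/alcohol 50:50 + sulfonate/nonionic emulsifiers, water-diluted to indicated concs. Spray both leaf surfaces to runoff, 10 psi; dry 1 h. Armyworm: 2 excised uninfested leaves in Petri dish. Score % mortality after standard exposure.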
# [2] = tested on: Botrytis cinerea (gray mold); assay: Test 1 greenhouse foliar spray screen, gray mold on grape berries; settings: disease control rating, spray on grape berries, 400 ppm (+++ at 100 ppm)
# [3] = tested on: Erysiphe graminis tritici (powdery mildew); assay: Test 1 greenhouse foliar spray screen, powdery mildew on wheat; settings: disease control rating, foliar spray on wheat, 400 ppm (+++ at 100 ppm)
# [4] = tested on: Pyricularia oryzae (rice blast); assay: whole plant or invertebrate; settings: disease control rating, foliar spray on rice, 400 ppm (+++ at 100 ppm)
# [5] = tested on: Twospotted spider mites (Tetranychus urticae Koch); assay: Mite/insect screen, SM; settings: percent mortality, SAW, SM & MA RATE 200 PPM; for mortality at 200 ppm: Tetranychus urticae, read-out: SM RESULTS %
# Procedure, shortened: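 Compounds dissolved in 50:50 acetone/alcohol containing sulfonate/nonionic emulsifier blends, then diluted with water to the indicated concentrations. Leaves sprayed on both surfaces to runoff at 10 psi and dried one hour. Percent mortality scored after standard exposure periods.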
# corn rootworm = assay: Mite/insect screen, CRW; settings: percent mortality, CRW RATE 12.00 PPM; for mortality at 12 ppm: read-out: CRW RESULTS %
# Procedure, shortened: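 Percent mortality is evaluated once the standard exposure period ends. Test material is applied as a water dilution of an acetone/alcohol (50:50) stock carrying two sulfonate/nonionic emulsifiers (23 and 13 g per liter).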
# [6] = tested on: Pseudoperonospora cubensis (downy mildew); assay: Test 1 greenhouse foliar spray screen, downy mildew on squash; settings: for DOWN MDEW: disease control rating, foliar spray on squash, 400 ppm (+++ at 100 ppm)
# [7] = tested on: southern armyworm (Spodopetra eridania Cramer); assay: Mite/insect screen, SAW; settings: percent mortality, SAW, SM & MA RATE 200 PPM; for mortality at 200 ppm: Spodoptera eridania, read-out: SAW RESULTS %
# Procedure, shortened: as §1
# [8] = tested on: Venturia inaequalis (apple scab); assay: Test 1 greenhouse foliar spray screen, apple scab on apple seedling; settings: disease control rating, foliar spray on apple seedling, 400 ppm (+++ at 100 ppm)
# [9] = tested on: Septoria tritici (leaf blotch); assay: Test 1 greenhouse foliar spray screen, leaf blotch on wheat; settings: disease control rating, foliar spray on wheat, 400 ppm (+++ at 100 ppm)
# [10] = tested on: Puccinia recondita tritici (leaf rust); assay: Test 1 greenhouse foliar spray screen, leaf rust on wheat; settings: disease control rating, foliar spray on wheat, 400 ppm (+++ at 100 ppm)
# [11] = tested on: Cercospora beticola (leaf spot); assay: Test 1 greenhouse foliar spray screen, leaf spot on sugar beet; settings: disease control rating, foliar spray on sugar beet, 400 ppm (+++ at 100 ppm)
SMILES,mortality at 200 ppm [1] [%],MA RESULTS % [1] [%],GRAY MOLD [2],POWD MDEW [3],RICE BLAST [4],mortality at 200 ppm [5] [%],SM RESULTS % [5] [%],CRW RESULTS % (corn rootworm) [%],mortality at 12 ppm (corn rootworm) [%],DOWN MDEW [6],mortality at 200 ppm [7] [%],SAW RESULTS % [7] [%],APPL SCAB [8],LEAF BLOT [9],LEAF RUST [10],LEAF SPOT [11],activity against downy mildew ([6]; summary statement in the description)
"Fc1cc(F)c2nccc(NCCc3ccsc3)c2c1 [Example 150, 6,8-difluoro-N-[2-(3-thienyl)ethyl]-4-quinolinamine]",0,0,- (0-19% control at 400 ppm),+ (20-89% control at 400 ppm),+ (20-89% control at 400 ppm),0,0,0,0,++ (90-100% control at 400 ppm),0,0,- (0-19% control at 400 ppm),+++ (90-100% control at 100 ppm),++ (90-100% control at 400 ppm),+++ (90-100% control at 100 ppm),–
"c1ccc2c(CCNc3ccnc4ccccc34)cccc2c1 [Example 151, N-[2-(1-naphthyl)ethyl]-4-quinolinamine]",0,–,- (0-19% control at 400 ppm),+ (20-89% control at 400 ppm),+ (20-89% control at 400 ppm),0,–,–,0,+++ (90-100% control at 100 ppm),0,–,- (0-19% control at 400 ppm),+ (20-89% control at 400 ppm),++ (90-100% control at 400 ppm),+ (20-89% control at 400 ppm),–
"c1ccc2cc(CCNc3ccnc4ccccc34)ccc2c1 [Example 152, N-[2-(2-naphthyl)ethyl]-4-quinolinamine]",0,0,- (0-19% control at 400 ppm),++ (90-100% control at 400 ppm),+++ (90-100% control at 100 ppm),0,0,0,0,+++ (90-100% control at 100 ppm),0,0,- (0-19% control at 400 ppm),+++ (90-100% control at 100 ppm),++ (90-100% control at 400 ppm),+++ (90-100% control at 100 ppm),–
"FC(F)(F)c1ccc2c(NCCc3cccs3)ccnc2c1 [Example 153, N-[2-(2-thienyl)ethyl]-7-(trifluoromethyl)-4-quinolinamine]",0,–,- (0-19% control at 400 ppm),+ (20-89% control at 400 ppm),++ (90-100% control at 400 ppm),0,–,–,0,+ (20-89% control at 400 ppm),0,–,- (0-19% control at 400 ppm),- (0-19% control at 400 ppm),++ (90-100% control at 400 ppm),- (0-19% control at 400 ppm),–
"Fc1cccc2c(NCCc3nc(-c4ccccc4)cs3)ccnc12 [Example 154, 8-fluoro-N-[2-(4-phenyl-2-thiazolyl)ethyl]-4-quinolinamine]",0,0,- (0-19% control at 400 ppm),++ (90-100% control at 400 ppm),+ (20-89% control at 400 ppm),0,0,0,0,+++ (90-100% control at 100 ppm),0,0,+ (20-89% control at 400 ppm),+ (20-89% control at 400 ppm),+++ (90-100% control at 100 ppm),+ (20-89% control at 400 ppm),particularly excellent activity
"Clc1cccc2c(NCCc3cccc4ccccc34)ccnc12 [Example 155, 8-chloro-N-[2-(1-naphthyl)ethyl]-4-quinolinamine]",0,–,- (0-19% control at 400 ppm),- (0-19% control at 400 ppm),+ (20-89% control at 400 ppm),0,–,–,0,+++ (90-100% control at 100 ppm),0,–,- (0-19% control at 400 ppm),- (0-19% control at 400 ppm),- (0-19% control at 400 ppm),- (0-19% control at 400 ppm),–
"Clc1cccc2c(NCCc3ccc4ccccc4c3)ccnc12 [Example 156, 8-chloro-N-[2-(2-naphthyl)ethyl]-4-quinolinamine]",0,0,- (0-19% control at 400 ppm),- (0-19% control at 400 ppm),+ (20-89% control at 400 ppm),0,0,0,0,+++ (90-100% control at 100 ppm),0,0,- (0-19% control at 400 ppm),- (0-19% control at 400 ppm),+ (20-89% control at 400 ppm),- (0-19% control at 400 ppm),–
"Fc1cccc2c(NCCc3cccc4ccccc34)ccnc12 [Example 158, 8-fluoro-N-[2-(1-naphthyl)ethyl]-4-quinolinamine]",0,–,- (0-19% control at 400 ppm),+ (20-89% control at 400 ppm),+++ (90-100% control at 100 ppm),0,–,–,0,+++ (90-100% control at 100 ppm),0,–,- (0-19% control at 400 ppm),+++ (90-100% control at 100 ppm),+++ (90-100% control at 100 ppm),+ (20-89% control at 400 ppm),–
"Cc1ccc(CCNc2ccnc3c(F)cccc23)s1 [Example 162, 8-fluoro-N-[2-(5-methyl-2-thienyl)ethyl]-4-quinolinamine]",0,–,- (0-19% control at 400 ppm),+ (20-89% control at 400 ppm),+ (20-89% control at 400 ppm),0,–,–,0,+++ (90-100% control at 100 ppm),0,–,- (0-19% control at 400 ppm),- (0-19% control at 400 ppm),++ (90-100% control at 400 ppm),- (0-19% control at 400 ppm),–
